Reference: US11447445B2, “Diabetes and metabolic syndrome treatment with a novel dual modulator of soluble epoxide hydrolase and peroxisome proliferator-activated receptors” (priority 2015, dated 2022)
Values after ≈ are worked out from the molar mass of the structure shown.

Columns and labels:
recombinant human sEH = target: T1, recombinant human sEH (Homo sapiens, UniProt P34913); assay: biochemical; conditions: for inhibition at 10 µM: read-out: sEH inhibition @10 μM (converted); for IC50: read-out: IC50 sEH (converted)
T1 sequence (P34913 1-555): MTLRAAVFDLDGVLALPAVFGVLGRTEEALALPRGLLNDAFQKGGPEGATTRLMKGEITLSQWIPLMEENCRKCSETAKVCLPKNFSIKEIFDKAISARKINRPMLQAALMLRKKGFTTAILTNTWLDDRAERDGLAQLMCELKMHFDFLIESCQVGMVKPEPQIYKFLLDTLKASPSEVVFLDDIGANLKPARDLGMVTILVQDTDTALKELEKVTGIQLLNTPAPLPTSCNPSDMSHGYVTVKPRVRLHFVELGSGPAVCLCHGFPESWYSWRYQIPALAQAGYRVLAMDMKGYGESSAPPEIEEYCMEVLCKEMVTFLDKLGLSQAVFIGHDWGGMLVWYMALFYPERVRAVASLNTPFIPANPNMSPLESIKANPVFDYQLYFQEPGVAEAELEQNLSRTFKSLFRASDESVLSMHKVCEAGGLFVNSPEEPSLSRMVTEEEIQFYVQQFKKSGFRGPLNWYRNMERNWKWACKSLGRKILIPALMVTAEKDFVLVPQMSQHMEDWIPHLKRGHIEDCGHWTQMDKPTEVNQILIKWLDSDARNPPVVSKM

PPARα = target: T2, PPARα (Homo sapiens, UniProt Q07869); assay type: cell-based; conditions: i.a. = inactive
T2 construct: expressed in transfected cells; host or cells: COS-7
T2 sequence (Q07869 239-466): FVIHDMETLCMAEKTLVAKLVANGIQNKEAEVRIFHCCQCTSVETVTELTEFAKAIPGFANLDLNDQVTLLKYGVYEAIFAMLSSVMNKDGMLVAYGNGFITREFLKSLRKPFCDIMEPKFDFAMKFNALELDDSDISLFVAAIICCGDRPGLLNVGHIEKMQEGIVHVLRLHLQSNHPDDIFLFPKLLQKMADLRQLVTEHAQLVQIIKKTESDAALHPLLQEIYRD
Protocol: (§1) COS-7 cells (PPAR) were grown in DMEM high glucose, supplemented with 10% fetal calf serum (FCS), 1% sodium pyruvate (SP) and 1% penicillin/streptomycin (PS) at 37° C. and 5% CO2. Used plasmids for PPAR transactivation assay are shown under supporting informations.
(§2) The day before transfection, COS-7 cells were seeded in 96-well plates with a density of 30,000 cells per well. Transient transfection was carried out using Lipofectamine LTX reagent (Invitrogen, Carlsbad, Calif., USA) according to the manufacturer's protocol with pFR-Luc (Stratagene), pRL-SV40 (Promega) and the Ga14-fusion receptor plasmids (pFA-CMV-hPPAR-LBD) of the respective PPAR subtype. 5 h after transfection, medium was changed to DMEM without phenol red and 10% FCS, supplemented with 1% SP, 1% PS and 1% L-glutamine, now additionally containing 0.1% DMSO and the respective test compound or 0.1% DMSO alone as untreated control. Each concentration was tested in triplicate wells and each experiment was repeated independently at least three times. Following overnight incubation with the test compounds, cells were assayed for luciferase activity using Dual-Glo™ Luciferase Assay System (Promega) according to the manufacturer's protocol. Luminescence was measured with an Infinite m200 luminometer (Tecan Deutschland GmbH). Each concentration of the compounds was tested in triplicate wells. Normalization for transfection efficacy and cell growth was done by division of the firefly luciferase data by renilla luciferase data resulting in relative light units. Activation factors were obtained by dividing by DMSO control. […] All compounds were evaluated by comparison of the achieved maximum effect to that of the reference compound (pioglitazone for PPARγ, GW7647 for PPARa, and L165041 for PPARS each with 1 μM). Data are expressed as mean±SE; n≥3.
(§3) The Gal4-fusion receptor plasmids pFA-CMV-PPARa-LBD, pFA-CMV-PPARS-LBD and pFA-CMV-PPARγ-LBD containing the hinge region and ligand binding domain (LBD) for each of the PPAR subtypes, respectively, were constructed by integrating cDNA fragments obtained from PCR amplification of human monocytes into the SmaI/XbaI cleavage site of the pFA-CMV vector (Stratagene, La Jolla, Calif., USA) and have already been published. […] Frame and sequence of the fusion receptors were verified by sequencing. pFR-Luc (Stratagene) was used as reporter plasmid and pRL-SV40 (Promega) for normalization of transfection efficacy and cell growth.

PPARδ = target: T3, PPARδ (Homo sapiens, UniProt Q03181); assay: PPAR transactivation assay in COS-7 cells (Gal4-hPPAR-LBD, luciferase); assay type: cell-based; conditions: i.a. = inactive
T3 construct: expressed in transfected cells; host or cells: COS-7
T3 sequence (Q03181 211-439): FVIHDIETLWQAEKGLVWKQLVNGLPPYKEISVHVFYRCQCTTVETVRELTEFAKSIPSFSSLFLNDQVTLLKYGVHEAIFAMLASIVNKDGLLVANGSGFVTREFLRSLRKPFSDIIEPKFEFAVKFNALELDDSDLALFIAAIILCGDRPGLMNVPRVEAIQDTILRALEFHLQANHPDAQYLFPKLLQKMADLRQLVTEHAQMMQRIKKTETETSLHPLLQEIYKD
Protocol: as §1, §2, §3

[1] = Water solubility approximation; assay type: physicochemical; conditions: PBS with 0.01% Polysorbate 20, aqueous with cosolvent or surfactant or cyclodextrin, kinetic from dmso stock; PBS pH 7.4, 0.01% Polysorbate 20, 1% DMSO; precipitation at 650 nm; read-out: w.s. (water solubility)
Protocol: PBS at pH 7.4 with 0.01% Polysorbate 20 (Tween) was combined with 1% of a DMSO solution of the inquired compound in a 96-well transparent flat bottom microtiter plate. Precipitation of the compound was measured at 650 nm with a Tecan Infinite 200 (Tecan Group Ltd, Mannedorf, Switzerland).

| Structure (SMILES) | inhibition at 10 µM (recombinant human sEH) | EC50 PPARα (PPARα) | EC50 PPARδ (PPARδ) | solubility [1] | IC50 (recombinant human sEH) |
| --- | --- | --- | --- | --- | --- |
| CCC(Cc1ccc(C(=O)NCc2ccccc2Br)cc1)C(=O)O (stereo not drawn) [Compound 5c, 2-Ethyl 3-[4-(N-((2-bromo)benzyl)benzamide)]propionic acid] | 34% | n.t. i.a. i.a. n.t. | n.t. i.a. i.a. n.t. | 500 µM (≈ 195 µg/mL) | – |
| CCOC(=O)C(CC)Cc1ccc(C(=O)NCc2ccccc2OC(F)(F)F)cc1 (stereo not drawn) [Compound 6b, Ethyl 2-ethyl 3-[4-(N-((2-trifluoromethoxy)benzyl)benzamide)]propanoate] | – | n.t. i.a. i.a. n.t. | n.t. i.a. i.a. n.t. | 100 µM (≈ 42.3 µg/mL) | – |
| CCC(Cc1ccc(C(=O)NCc2ccccc2OC(F)(F)F)cc1)C(=O)O (stereo not drawn) [Compound 6c, 2-Ethyl 3-[4-(N-((2-trifluoromethoxy)benzyl)benzamide)]propionic acid] | 23% | n.t. i.a. i.a. n.t. | n.t. i.a. i.a. n.t. | 500 µM (≈ 198 µg/mL) | – |
| CCOC(=O)C(CC)Cc1ccc(C(=O)NCc2ccc(OC)cc2)cc1 (stereo not drawn) [Compound 10b, Ethyl 2-ethyl 3-[4-(N-((4-methoxy)benzyl)benzamide)]propanoate] | – | n.t. i.a. i.a. n.t. | n.t. i.a. i.a. n.t. | 10 µM (≈ 3.69 µg/mL) | – |
| CCC(Cc1ccc(C(=O)NCc2ccc(OC)cc2)cc1)C(=O)O (stereo not drawn) [Compound 10c, 2-Ethyl 3-[4-(N-((4-methoxy)benzyl)benzamide)]propionic acid] | 34% | n.t. i.a. i.a. n.t. | n.t. i.a. i.a. n.t. | 500 µM (≈ 171 µg/mL) | – |
| CCOC(=O)C(CC)Cc1ccc(C(=O)NCc2ccc(Cl)cc2)cc1 (stereo not drawn) [Compound 11b, Ethyl 2-ethyl 3-[4-(N-((4-chloro)benzyl)benzamide)]propanoate] | – | n.t. i.a. i.a. n.t. | n.t. i.a. i.a. n.t. | 10 µM (≈ 3.74 µg/mL) | – |
| CCC(Cc1ccc(C(=O)NCc2ccc(Cl)cc2)cc1)C(=O)O (stereo not drawn) [Compound 11c, 2-Ethyl 3-[4-(N-((4-chloro)benzyl)benzamide)]propionic acid] | – | n.t. i.a. i.a. n.t. | n.t. i.a. i.a. n.t. | 500 µM (≈ 173 µg/mL) | – |
| CC/C(=C\c1ccc(C(=O)NCc2ccc(Cl)cc2)cc1)C(=O)O [Compound 11d, (E)-4-[N-((4-Chloro)benzyl)benzamide]-alpha-ethylcinnamic acid] | – | – | – | 100 µM (≈ 34.4 µg/mL) | 5000 nM |
| CCOC(=O)/C=C/c1ccc(C(=O)NCc2ccccc2C(F)(F)F)cc1 [Compound 16a, Ethyl (E)-4-[N-((2-trifluoromethyl)benzyl)benzamide]-cinnamate] | – | i.a. | i.a. | 2.5 µM (≈ 0.943 µg/mL) | 130 ± 5 nM |
| CCOC(=O)CCc1ccc(C(=O)NCc2ccccc2C(F)(F)F)cc1 [Compound 16b, Ethyl 3-[4-(N-((2-trifluoromethyl)benzyl)benzamide)]propanoate] | – | i.a. | i.a. | 5 µM (≈ 1.9 µg/mL) | 110 ± 3 nM |
| O=C(O)CCc1ccc(C(=O)NCc2ccccc2C(F)(F)F)cc1 [Compound 16c, 3-[4-(N-((2-trifluoromethyl)benzyl)benzamide)]propionic acid] | – | i.a. | i.a. | 500 µM (≈ 176 µg/mL) | 9000 ± 1700 nM |
| O=C(O)/C=C/c1ccc(C(=O)NCc2ccccc2C(F)(F)F)cc1 [Compound 16d, (E)-4-[N-((2-Trifluoromethyl)benzyl)benzamide]-cinnamic acid] | – | i.a. | i.a. | 10 µM (≈ 3.49 µg/mL) | 800 ± 50 nM |
| CCOC(=O)/C(C)=C/c1ccc(C(=O)NCc2ccccc2C(F)(F)F)cc1 [Compound 17a, Ethyl (E)-4-[N-((2-trifluoromethyl)benzyl)benzamide]-alpha-methylcinnamate] | – | – | – | 10 µM (≈ 3.91 µg/mL) | 100 ± 30 nM |
| CCOC(=O)C(C)Cc1ccc(C(=O)NCc2ccccc2C(F)(F)F)cc1 (stereo not drawn) [Compound 17b, Ethyl 2-methyl 3-[4-(N-((2-trifluoromethyl)benzyl)benzamide)]propanoate] | – | i.a. | i.a. | 10 µM (≈ 3.93 µg/mL) | 250 ± 40 nM |
| CC(Cc1ccc(C(=O)NCc2ccccc2C(F)(F)F)cc1)C(=O)O (stereo not drawn) [Compound 17c, 2-Methyl 3-[4-(N-((2-trifluoromethyl)benzyl)benzamide)]propionic acid] | – | i.a. | i.a. | 500 µM (≈ 183 µg/mL) | 8000 ± 1600 nM |
| C/C(=C\c1ccc(C(=O)NCc2ccccc2C(F)(F)F)cc1)C(=O)O [Compound 17d, (E)-4-[N-((2-Trifluoromethyl)benzyl)benzamide]-alpha-methylcinnamic acid] | – | – | – | 500 µM (≈ 182 µg/mL) | 4900 ± 60 nM |
| CCC/C(=C\c1ccc(C(=O)NCc2ccccc2C(F)(F)F)cc1)C(=O)OCC [Compound 18a, Ethyl (E)-4-[N-((2-trifluoromethyl)benzyl)benzamide]-alpha-propylcinnamate] | – | – | – | 10 µM (≈ 4.19 µg/mL) | 160 ± 60 nM |
| CCCC(Cc1ccc(C(=O)NCc2ccccc2C(F)(F)F)cc1)C(=O)OCC (stereo not drawn) [Compound 18b, Ethyl 2-propyl 3-[4-(N-((2-trifluoromethyl)benzyl)benzamide)]propanoate] | – | i.a. | i.a. | 5 µM (≈ 2.11 µg/mL) | 170 ± 40 nM |
| CCCC(Cc1ccc(C(=O)NCc2ccccc2C(F)(F)F)cc1)C(=O)O (stereo not drawn) [Compound 18c, 2-Propyl 3-[4-(N-((2-trifluoromethyl)benzyl)benzamide)]propionic acid] | – | i.a. | i.a. | 500 µM (≈ 197 µg/mL) | 5000 ± 1300 nM |
| CCC/C(=C\c1ccc(C(=O)NCc2ccccc2C(F)(F)F)cc1)C(=O)O [Compound 18d, (E)-4-[N-((2-Trifluoromethyl)benzyl)benzamide]-alpha-propylcinnamic acid] | – | – | – | 5 µM (≈ 1.96 µg/mL) | 700 ± 60 nM |
| CCOC(=O)/C(=C/c1ccc(C(=O)NCc2ccccc2C(F)(F)F)cc1)c1ccccc1 [Compound 19a, Ethyl (E)-4-[N-((2-trifluoromethyl)benzyl)benzamide]-alpha-phenylcinnamate] | – | – | – | 1 µM (≈ 0.453 µg/mL) | 160 ± 30 nM |
| CCOC(=O)C(Cc1ccc(C(=O)NCc2ccccc2C(F)(F)F)cc1)c1ccccc1 (stereo not drawn) [Compound 19b, Ethyl 2-phenyl 3-[4-(N-((2-trifluoromethyl)benzyl)benzamide)]propanoate] | – | i.a. | i.a. | 5 µM (≈ 2.28 µg/mL) | 120 ± 13 nM |
| O=C(NCc1ccccc1C(F)(F)F)c1ccc(CC(C(=O)O)c2ccccc2)cc1 (stereo not drawn) [Compound 19c, 2-Phenyl 3-[4-(N-((2-trifluoromethyl)benzyl)benzamide)]propionic acid] | – | i.a. | i.a. | 100 µM (≈ 42.7 µg/mL) | 2500 ± 500 nM |
| O=C(O)/C(=C/c1ccc(C(=O)NCc2ccccc2C(F)(F)F)cc1)c1ccccc1 [Compound 19d, (E)-4-[N-((2-Trifluoromethyl)benzyl)benzamide]-alpha-phenylcinnamic acid] | – | – | – | 50 µM (≈ 21.3 µg/mL) | 800 ± 10 nM |
